Activity calls are given as the source filed them. The calls are words filed in the database; no cut-off is given here.
Key:
[1] = species on record: Mus musculus; conditions: C57BL/6N, dose 30.0 mg/kg
[2] = molecular target: Solute carrier family 22 member 2 (Homo sapiens, UniProt O15244); test: Inhibition of OCT2 (unknown origin) at 1 to 10 uM
[3] = Dose normalized AUC (0 to 24 hrs) in Sprague-Dawley rat at 2 mg/kg, iv administered as single bolus dose by LC-MS/MS analysis; type: ADME, organism-based; conditions: in vivo
[4] = molecular target: Cytochrome P450 2C19 (Homo sapiens, UniProt P33261); test: Inhibition of CYP2C19 (unknown origin); type: ADME
Cytochrome P450 2C19, sequence (P33261 whole entry): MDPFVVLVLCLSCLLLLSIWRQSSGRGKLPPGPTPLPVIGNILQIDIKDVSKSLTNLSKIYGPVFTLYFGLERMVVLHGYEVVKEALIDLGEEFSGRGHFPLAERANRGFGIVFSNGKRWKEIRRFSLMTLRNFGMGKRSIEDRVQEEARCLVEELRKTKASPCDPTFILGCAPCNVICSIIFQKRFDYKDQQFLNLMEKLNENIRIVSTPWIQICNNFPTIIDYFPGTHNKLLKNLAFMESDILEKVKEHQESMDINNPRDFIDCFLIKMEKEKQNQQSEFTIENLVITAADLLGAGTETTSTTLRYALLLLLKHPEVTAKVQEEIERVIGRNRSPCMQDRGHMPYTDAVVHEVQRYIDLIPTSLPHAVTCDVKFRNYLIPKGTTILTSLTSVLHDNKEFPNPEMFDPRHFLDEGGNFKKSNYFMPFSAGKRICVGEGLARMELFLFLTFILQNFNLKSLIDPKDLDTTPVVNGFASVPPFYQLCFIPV

[5] = Elimination half-life in Balb/c mouse at 3 mg/kg, iv administered as single bolus dose by LC-MS/MS analysis; type: ADME, organism-based; conditions: in vivo, read-out: beta t1/2 (converted)
[6] = Drug uptake in C57BL/6N mouse plasma at 30 mg/kg, po qd administered via gavage measured 24 hrs post dose; type: ADME, organism-based; conditions: in vivo
[7] = molecular target: Acidic mammalian chitinase (Mus musculus, UniProt Q91XA9); test: Inhibition of full-length C-terminal his-tagged mouse AMCase expressed in expressed in CHO-K1 cells assessed as reduction in chitinolytic activity using 4-methylumbelliferyl-beta-D-N,N'-diacetylchitobioside hydrate as substrate after 60 mins by fluorometric assay; type: cell-based
Acidic mammalian chitinase, sequence (Q91XA9 whole entry): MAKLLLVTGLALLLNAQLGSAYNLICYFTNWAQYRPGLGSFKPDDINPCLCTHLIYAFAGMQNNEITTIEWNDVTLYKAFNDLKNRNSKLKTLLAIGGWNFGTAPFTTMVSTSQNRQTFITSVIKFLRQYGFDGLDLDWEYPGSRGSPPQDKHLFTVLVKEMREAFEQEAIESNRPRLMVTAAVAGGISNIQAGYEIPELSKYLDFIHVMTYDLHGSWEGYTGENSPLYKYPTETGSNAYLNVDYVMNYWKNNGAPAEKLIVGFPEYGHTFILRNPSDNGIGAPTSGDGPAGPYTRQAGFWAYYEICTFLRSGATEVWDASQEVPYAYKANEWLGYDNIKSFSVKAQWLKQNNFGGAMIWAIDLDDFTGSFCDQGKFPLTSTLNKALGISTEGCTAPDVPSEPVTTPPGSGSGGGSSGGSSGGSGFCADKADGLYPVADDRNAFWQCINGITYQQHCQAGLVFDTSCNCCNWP

[8] = AUC (0 to 24 hrs) in Sprague-Dawley rat at 2 mg/kg, iv administered as single bolus dose by LC-MS/MS analysis; type: ADME, organism-based; set-up: time < 24 hr, route intravenous, dose 2 mg/kg; conditions: in vivo
[9] = molecular target: Hepatic sodium/bile acid cotransporter (Homo sapiens, UniProt Q14973); test: Inhibition of NTCP (unknown origin) at 1 to 10 uM; conditions: dose 1-10 µM
Hepatic sodium/bile acid cotransporter, sequence (Q14973 whole entry): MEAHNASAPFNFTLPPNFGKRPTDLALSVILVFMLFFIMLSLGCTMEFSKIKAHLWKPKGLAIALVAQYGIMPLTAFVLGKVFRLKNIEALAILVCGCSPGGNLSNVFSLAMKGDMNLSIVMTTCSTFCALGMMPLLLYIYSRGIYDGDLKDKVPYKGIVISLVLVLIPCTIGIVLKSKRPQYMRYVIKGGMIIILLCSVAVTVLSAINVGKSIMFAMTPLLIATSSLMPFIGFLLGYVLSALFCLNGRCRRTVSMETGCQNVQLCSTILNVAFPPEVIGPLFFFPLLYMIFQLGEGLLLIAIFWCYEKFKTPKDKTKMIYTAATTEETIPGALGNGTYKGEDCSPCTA

[10] = Initial plasma concentration in Sprague-Dawley rat at 2 mg/kg, iv administered as single bolus dose by LC-MS/MS analysis; type: ADME, organism-based
[11] = Dose normalized AUC (0 to 24 hrs) in Balb/c mouse at 3 mg/kg, iv administered as single bolus dose by LC-MS/MS analysis; type: ADME, organism-based; conditions: in vivo
[12] = AUC (0 to 24 hrs) in Sprague-Dawley rat at 6 mg/kg, po administered as single dose by LC-MS/MS analysis; type: ADME, organism-based; set-up: time < 24 hr, route oral, dose 6 mg/kg; conditions: in vivo
[13] = molecular target: Solute carrier organic anion transporter family member 1B3 (Homo sapiens, UniProt Q9NPD5); test: Inhibition of OATP1B3 (unknown origin) at 1 to 10 uM; conditions: dose 1-10 µM
[14] = Drug uptake in C57BL/6N mouse lung at 30 mg/kg, po bid administered via gavage measured 24 hrs post dose; type: ADME, organism-based; conditions: in vivo
[15] = molecular target: ATP-binding cassette sub-family C member 2 (Homo sapiens, UniProt Q92887); test: Inhibition of MRP2 (unknown origin) at 1 to 10 uM; conditions: dose 1-10 µM
[16] = molecular target: Multidrug resistance-associated protein 1 (Homo sapiens, UniProt P33527); test: Inhibition of MRP1 (unknown origin) at 1 to 10 uM; conditions: dose 1-10 µM
Multidrug resistance-associated protein 1, sequence (P33527 whole entry): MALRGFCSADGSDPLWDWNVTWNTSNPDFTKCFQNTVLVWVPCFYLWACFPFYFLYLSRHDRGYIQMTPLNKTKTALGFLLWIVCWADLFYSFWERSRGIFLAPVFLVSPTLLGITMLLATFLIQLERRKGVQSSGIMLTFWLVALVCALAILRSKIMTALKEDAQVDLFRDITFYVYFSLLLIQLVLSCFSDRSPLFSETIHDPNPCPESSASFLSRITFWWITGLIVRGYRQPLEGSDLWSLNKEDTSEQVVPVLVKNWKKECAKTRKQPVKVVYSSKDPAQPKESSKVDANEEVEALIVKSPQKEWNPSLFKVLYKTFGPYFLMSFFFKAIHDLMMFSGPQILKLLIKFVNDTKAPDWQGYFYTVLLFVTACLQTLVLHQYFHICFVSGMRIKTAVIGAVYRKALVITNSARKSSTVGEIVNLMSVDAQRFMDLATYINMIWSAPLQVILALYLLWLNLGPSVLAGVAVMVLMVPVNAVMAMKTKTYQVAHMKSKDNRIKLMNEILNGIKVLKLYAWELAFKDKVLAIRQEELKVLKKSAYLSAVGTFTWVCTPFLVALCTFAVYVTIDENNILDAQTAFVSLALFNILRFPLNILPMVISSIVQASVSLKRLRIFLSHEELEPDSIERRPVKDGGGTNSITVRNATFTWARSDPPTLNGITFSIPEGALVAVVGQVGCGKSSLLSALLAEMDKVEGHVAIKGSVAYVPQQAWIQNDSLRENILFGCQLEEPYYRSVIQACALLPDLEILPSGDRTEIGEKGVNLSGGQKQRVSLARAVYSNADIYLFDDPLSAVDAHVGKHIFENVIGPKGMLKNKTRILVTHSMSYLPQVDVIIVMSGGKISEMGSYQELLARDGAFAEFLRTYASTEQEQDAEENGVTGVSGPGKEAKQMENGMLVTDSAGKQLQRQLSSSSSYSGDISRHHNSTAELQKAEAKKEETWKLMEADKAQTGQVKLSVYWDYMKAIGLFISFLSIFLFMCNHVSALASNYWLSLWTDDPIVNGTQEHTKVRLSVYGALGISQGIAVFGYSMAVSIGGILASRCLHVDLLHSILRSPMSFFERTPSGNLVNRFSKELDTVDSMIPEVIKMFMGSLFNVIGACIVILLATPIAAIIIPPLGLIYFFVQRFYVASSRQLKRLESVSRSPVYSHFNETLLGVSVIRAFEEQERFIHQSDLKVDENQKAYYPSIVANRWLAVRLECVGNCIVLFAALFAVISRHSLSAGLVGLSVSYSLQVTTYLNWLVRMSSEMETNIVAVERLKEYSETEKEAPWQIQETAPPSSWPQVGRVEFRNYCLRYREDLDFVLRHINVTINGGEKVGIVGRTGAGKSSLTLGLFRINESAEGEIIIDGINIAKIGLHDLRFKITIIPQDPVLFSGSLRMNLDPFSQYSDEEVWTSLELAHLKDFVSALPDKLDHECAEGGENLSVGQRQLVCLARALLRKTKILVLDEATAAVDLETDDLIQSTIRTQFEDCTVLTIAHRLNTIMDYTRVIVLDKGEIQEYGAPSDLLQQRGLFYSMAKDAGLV

[17] = Clearance (0 to 24 hrs) in Balb/c mouse at 3 mg/kg, iv administered as single bolus dose by LC-MS/MS analysis; type: ADME, organism-based; conditions: in vivo
[18] = AUC (0 to 24 hrs) in Balb/c mouse at 10 mg/kg, po administered as single dose by LC-MS/MS analysis; type: ADME, organism-based; set-up: time < 24 hr, route oral, dose 10 mg/kg; conditions: in vivo
[19] = Dose normalized AUC (0 to 24 hrs) in Balb/c mouse at 10 mg/kg, po administered as single dose by LC-MS/MS analysis; type: ADME, organism-based; conditions: in vivo
[20] = Elimination half-life in Balb/c mouse at 10 mg/kg, po administered as single dose by LC-MS/MS analysis; type: ADME, organism-based; conditions: in vivo, read-out: beta t1/2 (converted)
[21] = Dose normalized AUC (0 to 24 hrs) in Beagle dog at 10 mg/kg, po administered as single dose by LC-MS/MS analysis; type: ADME, organism-based, Canis lupus familiaris; conditions: in vivo
[22] = molecular target: Chitotriosidase-1 (Mus musculus, UniProt Q9D7Q1); test: biochemical
Chitotriosidase-1, sequence (Q9D7Q1 whole entry): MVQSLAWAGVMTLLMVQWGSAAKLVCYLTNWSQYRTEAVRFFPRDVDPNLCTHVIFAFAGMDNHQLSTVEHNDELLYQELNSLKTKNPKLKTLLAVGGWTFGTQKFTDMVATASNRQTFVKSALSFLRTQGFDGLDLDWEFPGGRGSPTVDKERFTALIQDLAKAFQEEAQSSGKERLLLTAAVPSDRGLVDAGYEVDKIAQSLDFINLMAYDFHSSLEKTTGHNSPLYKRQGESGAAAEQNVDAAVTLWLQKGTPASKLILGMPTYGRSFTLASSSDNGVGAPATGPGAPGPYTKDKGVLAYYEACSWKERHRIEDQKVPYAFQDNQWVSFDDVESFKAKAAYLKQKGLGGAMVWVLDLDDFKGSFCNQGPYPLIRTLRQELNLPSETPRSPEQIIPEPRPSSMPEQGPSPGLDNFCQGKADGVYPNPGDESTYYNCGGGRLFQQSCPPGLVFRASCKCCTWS
Description: Inhibition of recombinant full-length C-terminal his-tagged mouse CHIT1 expressed in CHO-K1 cells assessed as reduction in chitinolytic activity using 4-methylumbelliferyl-beta-D-N,N',N"-triacetylchitotrioside as substrate after 60 mins by fluorometric assay

[23] = molecular target: Broad substrate specificity ATP-binding cassette transporter ABCG2 (Homo sapiens, UniProt Q9UNQ0); test: Inhibition of BCRP (unknown origin) at 1 to 10 uM; conditions: dose 1-10 µM
Broad substrate specificity ATP-binding cassette transporter ABCG2, sequence (Q9UNQ0 whole entry): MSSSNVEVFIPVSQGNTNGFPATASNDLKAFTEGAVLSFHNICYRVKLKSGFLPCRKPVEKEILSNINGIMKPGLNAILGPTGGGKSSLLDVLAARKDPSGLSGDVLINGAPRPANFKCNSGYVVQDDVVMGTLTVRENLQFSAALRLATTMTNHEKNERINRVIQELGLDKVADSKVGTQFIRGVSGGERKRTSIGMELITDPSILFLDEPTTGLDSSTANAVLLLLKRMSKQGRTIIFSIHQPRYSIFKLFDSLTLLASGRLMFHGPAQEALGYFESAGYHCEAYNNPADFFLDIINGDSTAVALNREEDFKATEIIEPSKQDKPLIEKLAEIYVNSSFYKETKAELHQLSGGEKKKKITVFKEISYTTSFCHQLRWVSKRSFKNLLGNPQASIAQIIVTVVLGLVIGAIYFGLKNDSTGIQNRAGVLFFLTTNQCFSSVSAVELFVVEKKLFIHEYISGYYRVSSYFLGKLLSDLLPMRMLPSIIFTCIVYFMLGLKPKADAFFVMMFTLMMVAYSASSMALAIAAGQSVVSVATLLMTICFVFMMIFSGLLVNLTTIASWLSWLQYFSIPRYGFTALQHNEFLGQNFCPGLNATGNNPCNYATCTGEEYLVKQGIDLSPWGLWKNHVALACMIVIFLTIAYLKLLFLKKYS

[24] = Cmax in Beagle dog at 3 mg/kg, iv administered as single bolus dose by LC-MS/MS analysis; type: ADME, organism-based, Canis lupus familiaris; set-up: route intravenous, dose 3 mg/kg; conditions: in vivo
[25] = Elimination half-life in Sprague-Dawley rat at 6 mg/kg, po administered as single dose by LC-MS/MS analysis; type: ADME, organism-based; conditions: in vivo, read-out: beta t1/2 (converted)
[26] = molecular target: Solute carrier organic anion transporter family member 1B1 (Homo sapiens, UniProt Q9Y6L6); test: Inhibition of OATP1B1 (unknown origin) at 1 to 10 uM; conditions: dose 1-10 µM
[27] = molecular target: ATP-binding cassette sub-family C member 3 (Homo sapiens, UniProt O15438); test: Inhibition of MRP3 (unknown origin) at 1 to 10 uM; conditions: dose 1-10 µM
[28] = Dose normalized AUC (0 to 24 hrs) in Beagle dog at 3 mg/kg, iv administered as single bolus dose by LC-MS/MS analysis; type: ADME, organism-based, Canis lupus familiaris; conditions: in vivo
[29] = Oral bioavailability in Sprague-Dawley rat at 6 mg/kg, administered as single dose by LC-MS/MS analysis; type: ADME, organism-based; conditions: in vivo
[30] = Cmax in Balb/c mouse at 10 mg/kg, po administered as single dose by LC-MS/MS analysis; type: ADME, organism-based; set-up: route oral, dose 10 mg/kg; conditions: in vivo
[31] = species on record: Mus musculus; conditions: C57BL/6N, dose 30.0 mg/kg; remark: listed apart in the source
[32] = Volume of distribution at steady state in Beagle dog at 3 mg/kg, iv administered as single bolus dose measured upto 24 hrs by LC-MS/MS analysis; type: ADME, organism-based, Canis lupus familiaris; conditions: in vivo, read-out: Vdss
[33] = Elimination half-life in Sprague-Dawley rat at 2 mg/kg, iv administered as single bolus dose by LC-MS/MS analysis; type: ADME, organism-based; conditions: in vivo, read-out: beta t1/2 (converted)
[34] = AUC (0 to 24 hrs) in Beagle dog at 10 mg/kg, po administered as single dose by LC-MS/MS analysis; type: ADME, organism-based, Canis lupus familiaris; set-up: time < 24 hr, route oral, dose 10 mg/kg; conditions: in vivo
[35] = Cmax in Beagle dog at 10 mg/kg, po administered as single dose by LC-MS/MS analysis; type: ADME, organism-based, Canis lupus familiaris; set-up: route oral, dose 10 mg/kg; conditions: in vivo
[36] = Volume of distribution at steady state in Balb/c mouse at 3 mg/kg, iv administered as single bolus dose measured upto 24 hrs by LC-MS/MS analysis; type: ADME, organism-based; conditions: in vivo, read-out: Vdss
[37] = molecular target: Solute carrier family 22 member 6 (Homo sapiens, UniProt Q4U2R8); test: Inhibition of OAT1 (unknown origin) at 1 to 10 uM; conditions: dose 1-10 µM
[38] = Dose normalized Cmax in Beagle dog at 10 mg/kg, po administered as single dose by LC-MS/MS analysis; type: ADME, organism-based, Canis lupus familiaris; conditions: in vivo
[39] = Dose normalized Cmax in Sprague-Dawley rat at 6 mg/kg, po administered as single dose by LC-MS/MS analysis; type: ADME, organism-based; conditions: in vivo
[40] = Clearance (0 to 24 hrs) in Beagle dog at 3 mg/kg, iv administered as single bolus dose by LC-MS/MS analysis; type: ADME, organism-based, Canis lupus familiaris; conditions: in vivo
[41] = In-vivo inhibition of CHIT1 in C57BL/6N mouse assessed as decrease in chitinolytic activity in plasma at 30 mg/kg, po qd administered via gavage measured up to 12 hrs relative to control; type: functional; conditions: time hrs <=12

Solute carrier family 22 member 2, sequence (O15244 whole entry): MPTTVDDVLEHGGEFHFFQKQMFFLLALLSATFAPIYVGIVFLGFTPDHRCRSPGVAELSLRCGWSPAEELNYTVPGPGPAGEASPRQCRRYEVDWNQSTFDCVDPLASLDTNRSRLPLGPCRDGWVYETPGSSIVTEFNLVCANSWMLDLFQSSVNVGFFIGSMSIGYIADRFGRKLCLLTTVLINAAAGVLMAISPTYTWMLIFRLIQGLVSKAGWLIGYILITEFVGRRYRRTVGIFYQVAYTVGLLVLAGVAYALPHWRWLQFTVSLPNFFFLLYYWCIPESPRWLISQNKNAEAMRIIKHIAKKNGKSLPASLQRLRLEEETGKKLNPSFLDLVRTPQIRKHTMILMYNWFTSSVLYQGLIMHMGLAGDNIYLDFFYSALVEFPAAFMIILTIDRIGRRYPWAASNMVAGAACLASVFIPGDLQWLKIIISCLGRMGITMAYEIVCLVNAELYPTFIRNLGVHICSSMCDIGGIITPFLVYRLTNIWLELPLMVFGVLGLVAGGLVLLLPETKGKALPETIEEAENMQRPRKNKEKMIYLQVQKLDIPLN

inhibition (INH) [2]: Not Active
AUC/dose [3]: 2.78 kg·mg·h/L/mg
inhibition (INH) [4]: Not Active
half-life [5]: 2.09 h
Drug uptake [6]: Active
IC50 [7]: 7.8 nM
Ki [7]: 5.7 nM
AUC(0-t) at 24 h [8]: 5560 ng·h/mL
inhibition (INH) [9]: Not Active
C0 [10]: 1000 ng/mL
AUC/dose [11]: 2.87 kg·mg·h/L/mg
AUC(0-t) at 24 h [12]: 20300 ng·h/mL
inhibition (INH) [13]: Not Active
Drug uptake [14]: Active
inhibition (INH) [15]: Not Active
inhibition (INH) [16]: Not Active
clearance [17]: 5.83 mL/min/kg
AUC(0-t) at 24 h [18]: 22200 ng·h/mL
AUC/dose [19]: 2.22 kg·mg·h/L/mg
half-life [20]: 1.88 h
AUC/dose [21]: 9.41 kg·mg·h/L/mg
IC50 [22]: 28 nM
Ki [22]: 26 nM
inhibition (INH) [23]: Not Active
Cmax [24]: 2470 ng/mL
half-life [25]: 4.47 h
inhibition (INH) [26]: Not Active
inhibition (INH) [27]: Not Active
AUC/dose [28]: 10.34 kg·mg·h/L/mg
bioavailability [29]: 107%
Cmax [30]: 3420 ng/mL
Vd [32]: 0.96 L/kg
half-life [33]: 4.49 h
AUC(0-t) at 24 h [34]: 94100 ng·h/mL
Cmax [35]: 7640 ng/mL
Vd [36]: 1.01 L/kg
inhibition (INH) [37]: Not Active
Cmax/dose [38]: 0.76 kg.mg/L.mL
Cmax/dose [39]: 0.37 kg.mg/L.mL
clearance [40]: 1.67 mL/min/kg
SMILES: C[C@H]1CN(C2CCN(c3nc(N)n[nH]3)CC2)[C@@H](Cc2ccc(Cl)cc2)CO1 [5-(4-((2S,5S)-5-(4-CHLOROBENZYL)-2-METHYLMORPHOLINO)PIPERIDIN-1-YL)-1H-1,2,4-TRIAZOL-3-AMINE]
inhibition [1]: Active
inhibition [31]: Active
inhibition in vivo at 30 mg/kg [41]: 70%
